Patent US20170096636A1, “METHODS AND COMPOUNDS FOR PHOTOTHERAPY WITH CHALCOGENORHODAMINE PHOTOSENSITIZERS” (Wake Forest University Health Sciences, priority 2014, published 2017)
Entries after “also recorded” stand apart in the source; their conditions may differ.

Key:
[1] = n-octanol / PBS pH 7.4, shake flask
HUT-78 cells = experiment: Cellular uptake and extrusion of photosensitizer (flow cytometry MFI); format: cell-based; details: ±SE; for Uptake MFI: 2.5 × 10^−7 M photosensitizer, 20 minutes exposure; for % Extrusion: percent change in MFI after 18 hour extrusion period, 2.5 × 10^−7 M
Description: Cellular Uptake and Extrusion of Chalcogenorhodamine Photosensitizers. […] Cellular uptake of the chalcogenorhodamine photosensitizers was measured after a 20 minute exposure to 2.5×10^−7 M photosensitizer in malignant T cells (HUT-78 cells, Table 2). Transmembrane movement of the photosensitizers in the secretory direction (basolateral to apical) was measured after an 18-h extrusion period. As described above, the Se-containing molecules fluoresced at a lower intensity relative to the S-containing molecules. […] Overall, the PF6^− salts were more slowly extruded from cells relative to the chloride salts of the amide, with a greater difference in the extrusion kinetics noted between the thiorhodamine PF6 salts compared to the selenorhodamine chloride salts.

[2] = tested on: immunomagnetically-selected CD3+ cells; experiment: Phototoxicity: photodepletion (PD) of CD3+ cells, real-time OCR; format: cell-based; details: 5.0×10^−8 M 20 minutes, 30 minutes photosensitizer-free, 5 J/cm^2 light
Description: (§1) Selective phototoxicity of Chalcogenorhodamine Photosensitizers. Based on the rapid extrusion kinetics and low potential for toxicity in resting cells, we selected four amide-containing half-julolidine analogues for further analysis (2-S—Cl, 2-Se—Cl, 4-S—Cl, and 4-Se—Cl). These photosensitizers are associated with high singlet oxygen quantum yields (Table I). As a result, very low concentrations of these agents are required for phototherapy. For all PD experiments, immunomagnetically-selected CD3^+ cells were suspended in a photosensitizer-rich media of 5.0×10^−8 M for 20 minutes followed by 30 minutes in a photosensitizer-free media. Cells were then exposed to 5 J/cm^2 of light followed by real-time measurement of OCR and ECAR. […] We next evaluated the effects of PD on cell survival. For these experiments, FACS analysis was performed 18 hours after PD. Cell survival was identified by failure to bind Annexin 5 and 7AAD, and percent survival was calculated as the difference in the absolute number of cells between PD and control (non-PD samples) samples.

[3] = Quantum yield for generation of singlet oxygen, time-resolved 1O2 phosphorescence; format: physicochemical; details: air-saturated MeOH, TMR-Se as reference
[4] = Fluorescence quantum yield in MeOH; format: physicochemical; details: quantum yield for fluorescence in MeOH
[5] = tested on: immunomagnetically-selected CD3+ cells; experiment: Phototoxicity: cell survival by FACS (Annexin 5/7AAD) 18 hours after PD; format: cell-based; details: 5.0×10^−8 M, 5 J/cm^2 light, FACS 18 hours after PD
Description: as §1

cytochrome c oxidase = details: whole cells, irradiation; cited from earlier work
[6] = reference value; cited from earlier work
physchem = details: n-octanol/phosphate buffered saline, pH 7.4
MDCK-MDR1 cells = details: cited from earlier work
P-gp = P-gp (Homo sapiens, UniProt P08183); details: cited from earlier work
PBMCs = format: cell-based; details: SEB 50 ng/mL 72 hours, CFSE
resting T cells = experiment: Dark toxicity: bioenergetics (O2 consumption rate) of resting T cells; details: 5.0×10^−7 M
[7] = tested on: activated T cells (CD25+); experiment: PD of activated T cells after SEB stimulation: bioenergetics and survival; format: cell-based; details: 5×10^−8 M, 5 J/cm^2
Description: To evaluate the differential effects of PD on bioenergetics of activated and resting T cells, immunomagnetically-selected CD25^+ and CD25^− T cells were isolated (>95% purity) after SEB stimulation. PD was then performed, and bioenergetics were measured within 1 hour. The percent of basal OCR devoted to ATP production was determined by comparing basal OCR to baseline OCR (after oligomycin injection). […] Upon exposure to light, the higher concentration of 2-Se—Cl selectively disrupted OXPHOS in activated T cells. To determine whether the selective impedance of basal ATP production affected cell survival, we performed FACS analysis 18 hours after PD (FIG. 5C).

P-gp, sequence (P08183 whole entry): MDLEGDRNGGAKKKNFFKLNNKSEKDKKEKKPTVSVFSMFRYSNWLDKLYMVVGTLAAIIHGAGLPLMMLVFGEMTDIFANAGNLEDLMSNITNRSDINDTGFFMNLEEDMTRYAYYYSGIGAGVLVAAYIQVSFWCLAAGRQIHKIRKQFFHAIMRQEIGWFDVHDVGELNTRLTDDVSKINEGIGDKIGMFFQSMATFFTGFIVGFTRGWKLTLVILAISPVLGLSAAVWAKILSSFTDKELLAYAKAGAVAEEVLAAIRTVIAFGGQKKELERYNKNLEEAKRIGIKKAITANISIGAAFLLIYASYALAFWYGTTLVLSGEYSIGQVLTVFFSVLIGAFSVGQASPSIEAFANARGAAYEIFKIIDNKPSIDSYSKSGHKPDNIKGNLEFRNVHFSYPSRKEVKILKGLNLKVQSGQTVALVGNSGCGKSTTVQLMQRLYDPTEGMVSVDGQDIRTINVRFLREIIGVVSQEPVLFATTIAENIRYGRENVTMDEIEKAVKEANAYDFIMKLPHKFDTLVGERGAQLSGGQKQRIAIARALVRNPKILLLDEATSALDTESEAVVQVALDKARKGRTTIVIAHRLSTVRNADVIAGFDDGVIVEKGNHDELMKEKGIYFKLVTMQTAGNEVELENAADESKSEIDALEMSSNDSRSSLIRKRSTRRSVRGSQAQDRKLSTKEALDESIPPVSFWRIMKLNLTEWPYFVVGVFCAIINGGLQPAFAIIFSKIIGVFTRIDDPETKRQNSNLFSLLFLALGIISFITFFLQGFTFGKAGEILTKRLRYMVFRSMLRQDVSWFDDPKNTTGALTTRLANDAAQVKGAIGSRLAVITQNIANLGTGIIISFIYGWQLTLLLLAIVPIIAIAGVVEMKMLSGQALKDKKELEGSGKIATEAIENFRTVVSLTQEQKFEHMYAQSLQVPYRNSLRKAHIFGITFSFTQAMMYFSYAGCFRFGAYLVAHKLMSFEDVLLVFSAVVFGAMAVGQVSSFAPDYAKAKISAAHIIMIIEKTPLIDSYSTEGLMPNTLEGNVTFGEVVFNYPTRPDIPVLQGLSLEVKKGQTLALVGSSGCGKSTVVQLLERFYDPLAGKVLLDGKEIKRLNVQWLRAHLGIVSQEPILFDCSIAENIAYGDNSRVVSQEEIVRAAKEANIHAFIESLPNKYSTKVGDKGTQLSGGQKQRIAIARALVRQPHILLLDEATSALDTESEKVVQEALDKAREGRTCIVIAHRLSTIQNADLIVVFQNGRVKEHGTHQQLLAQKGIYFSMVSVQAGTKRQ

Compound	log P [1]	Uptake MFI (HUT-78 cells)	% Extrusion (HUT-78 cells)	effect of PD on basal OCR [2]	Φ(^1O2), MeOH [3]	ΦF, MeOH [4]	cell death after PD [5]	cytochrome c oxidase activity in irradiated treated cells (cytochrome c oxidase)	further results
CCN(CC)C(=O)c1ccc(-c2c3ccc(=[N+](C)C)cc-3[se]c3cc4c(cc23)C(C)(C)CCN4C)s1.[Cl-] [4-Se—Cl, N-(6-(5-(diethylcarbamoyl)thiophen-2-yl)-1,4,4-trimethyl-3,4-dihydro-1H-selenochromeno-[3,2-g]quinolin-9(2H)-ylidene)-N-methylmethanaminium Chloride]	2.26 ± 0.04	5209	92.24 (±0.69) %	did not significantly impede the basal OCR	0.50 ± 0.03	0.009 ± 0.001	minimal cell death	–	–
CN(C)c1ccc2c(-c3ccccc3)c3ccc(=[N+](C)C)cc-3[se]c2c1.[Cl-] [TMR-Se]	–	–	–	–	–	–	–	light fluence-dependent inhibition of cytochrome c oxidase activity	Φ(^1O2) of reference [6]: 0.87
CCN(CC)C(=O)c1ccc(-c2c3ccc(N(C)C)cc3[se+]c3c4c5c(cc23)CCCN5CCC4)s1.[Cl-] [8-Se—Cl, 12-(Dimethylamino)-2,3,6,7-tetrahydro-9-(5-(diethylcarbamoyl)-thiophen-2-yl)-1H,5H-selenoxantheno[2,3,4-ij]quinolizin-14-ium Chloride]	–	19365	83.05 (±1.78) %	–	–	–	–	–	logP (physchem): 2.87 ± 0.01; melting point: 150 to 152 °C
CN(C)c1ccc2c(-c3ccccc3)c3ccc(=[N+](C)C)cc-3sc2c1.[Cl-] [TMR-S]	–	–	–	–	–	–	–	light fluence-dependent inhibition of cytochrome c oxidase activity	–
CCN(CC)C(=O)c1ccc(-c2c3ccc(N(C)C)cc3[s+]c3c4c5c(cc23)CCCN5CCC4)s1.F[P-](F)(F)(F)(F)F [8-S—PF6]	1.4	128000	79.40 (±1.56) %	–	–	–	–	–	PBA (MDCK-MDR1 cells): 21 ×10⁻⁶ cm/s; effect on ATPase activity in P-gp (P-gp): stimulate ATPase activity
CN1CCC(C)(C)c2cc3c(-c4ccc(C(=O)N5CCCCC5)s4)c4ccc(=[N+](C)C)cc-4[se]c3cc21.[Cl-] [2-Se—Cl, N-methyl-N-(1,4,4-trimethyl-6-(5-(piperidine-1-carbonyl)thiophen-2-yl)-3,4-dihydro-1H-selenochromeno[3,2-g]quinolin-9(2H)-ylidene)methanaminium Chloride]	2.23 ± 0.04	6536	92.17 (±1.09) %	did not significantly impede the basal OCR	0.48±0.03	0.009 ± 0.001	minimal cell death	–	response to TSST-1 after PD (PBMCs; challenge with TSST-1, 6 days): a robust response was observed; proliferation in response to SEB after PD (PBMCs; rechallenge with SEB, 6 days): no proliferation occurred; aerobic glycolysis after PD (resting T cells (CD25−)): not affecting aerobic glycolysis of either population; cell death in resting T cell population (resting T cells (CD25−)): minimal to no cell death; dark toxicity (resting T cells): not associated with any significant dark toxicity; also recorded: minimal toxicity; activated T cells eliminated from culture ([7]; FACS 18 hours after PD): Greater than 90%; aerobic glycolysis after PD ([7]; activated T cells): not affecting aerobic glycolysis of either population; OXPHOS associated ATP production after PD ([7]; activated T cells, within 1 hour): significantly impeded
